Reference: patent publication US20250154172A1, “PRMT5 INHIBITORS AND USES THEREOF” (Gilead Sciences, Inc., priority 2023, published 2025)

Tested on: HCT116 MTAP-deleted cell lines
Assay: Cell viability assay for HCT116 isogenic pair (CellTitre-Glo, 7 days)
Assay type: cell-based
Conditions: Homo sapiens, HCT-116, 168 h, 7 days of treatment, cell line not given
Method: Control compounds were analyzed in parallel each time for quality control.
In Brief, on Day −1, a serial dilution of stock compounds in DMSO was performed using BioMek liquid handlers and dispensed using Echo acoustic dispenser into 384 well plates. Both tool compounds and sample compounds were spotted in the same plate for a dose response of PRMT5 inhibitors. Compound plates were stored as frozen until the cells were ready for seeding.
On Day 0, 100 HCT WT or HCT116 MTAP-deleted cells were seeded in compound-containing 384 well plates (50 μl per well) in RPMI 1640 media supplemented with 10% heat inactivated fetal bovine serum, Glutamax and penicillin streptomycin using EL460 liquid dispenser 5 μl cassette (BioTek, part no. 7170011). After equilibrating the plate in room temperature, the cells were incubated for 7 days inside the sealed incubator set at 37° C. with 90% humidity and 5% CO2.
On Day 7, the viability of cells was measured using a CTG assay kit (CellTitre-Glo; Promega cat no. G7573). Shortly, 40 μl per well of luminescent cell viability assay reagent were dispensed using EL460 liquid dispenser 5 μl cassette. CTG luminescence signal was measured using an EnVision plate reader (PerkinElmer) in accordance with manufacturer's instruction. The CCso values for each compound after 7 days of treatment were calculated using 4 parameter non-linear logistical curve fit.
For the cell viability assay ie CC50 shown in nM in Table 3.

Cn1ncc2c(N)nc3cnc(C(=O)N4CCC[C@@H]5Oc6c(ccc(OC(F)(F)F)c6F)[C@@H]54)cc3c21 [Example Ca-7, (4-amino-1-methyl-1H-pyrazolo[4,3-c][1,7]naphthyridin-8-yl)((4aS,9bS)-6-fluoro-7-(trifluoromethoxy)-3,4,4a,9b-tetrahydrobenzofuro[3,2-b]pyridin-1(2H)-yl)methanone]
CC50: 13 nM

Cn1ncc2c(N)nc3ccc(C(=O)N4CCCC5OCc6cc(C(F)(F)F)ccc6C54)cc3c21 (stereo not drawn) [Example Ca-9, (4-amino-1-methyl-1H-pyrazolo[4,3-c]quinolin-8-yl)(8-(trifluoromethyl)-2,3,4,4a,6,10b-hexahydro-1H-isochromeno[4,3-b]pyridin-1-yl)methanone]
CC50: 56 nM

C[C@H]1CN(C(=O)c2cc3c(cn2)nc(N)c2cnn(C)c23)[C@H]2c3ccc(C(F)(F)F)cc3C[C@H]2O1 [Example Ca-13, (4-amino-1-methyl-1H-pyrazolo[4,3-c][1,7]naphthyridin-8-yl)((2S,4aS,9aR)-2-methyl-7-(trifluoromethyl)-2,3,9,9a-tetrahydroindeno[2,1-b][1,4]oxazin-4(4aH)-yl)methanone]
CC50: 17 nM

Cn1ncc2c(N)nc3cnc(C(=O)N4CC[C@H]5C[C@@H]4c4ccc(OC(F)F)cc45)cc3c21 [Example Ca-15, (4-amino-1-methyl-1H-pyrazolo[4,3-c][1,7]naphthyridin-8-yl)((1R,5S)-7-(difluoromethoxy)-1,3,4,5-tetrahydro-2H-1,5-methanobenzo[c]azepin-2-yl)methanone]
CC50: 10 nM

Cn1ncc2c(N)nc3cnc(C(=O)N4CC[C@@H]5C[C@H]4c4ccc(OC(F)F)cc45)cc3c21 [Example Ca-16, (4-amino-1-methyl-1H-pyrazolo[4,3-c][1,7]naphthyridin-8-yl)((1S,5R)-7-(difluoromethoxy)-1,3,4,5-tetrahydro-2H-1,5-methanobenzo[c]azepin-2-yl)methanone]
CC50: 91 nM

C[C@@H]1C[C@@H]2Oc3cc(C(F)(F)F)ccc3[C@@H]2N(C(=O)c2cc3c(cn2)nc(N)c2cnn(C)c23)C1 [Example Ca-17, (4-amino-1-methyl-1H-pyrazolo[4,3-c][1,7]naphthyridin-8-yl)((3R,4aS,9bS)-3-methyl-7-(trifluoromethyl)-3,4,4a,9b-tetrahydrobenzofuro[3,2-b]pyridin-1(2H)-yl)methanone]
CC50: 7 nM

Nc1nc2cnc(C(=O)N3CC[C@H]4C[C@@H]3c3ccc(C(F)(F)F)nc3O4)cc2c2c1COC2 [Example Ca-18, (4-amino-1,3-dihydrofuro[3,4-c][1,7]naphthyridin-8-yl)((2S,6R)-9-(trifluoromethyl)-3,4-dihydro-2H-2,6-methanopyrido[2,3-b][1,5]oxazocin-5(6H)-yl)methanone]
CC50: 34 nM

Cn1ncc2c(N)nc3cnc(C(=O)N4CCC[C@@H]5Oc6cc(C(F)(F)F)ccc6[C@@H]54)cc3c21 [Example Ca-19, (4-amino-1-methyl-1H-pyrazolo[4,3-c][1,7]naphthyridin-8-yl)((4aS,9bS)-7-(trifluoromethyl)-3,4,4a,9b-tetrahydrobenzofuro[3,2-b]pyridin-1(2H)-yl)methanone]
CC50: 6 nM

Cn1ncc2c(N)nc3ccc(C(=O)N4CCOC5CCc6ccccc6C54)cc3c21 (stereo not drawn) [Example Ca-20, 2,3,4a,5,6,10b-hexahydrobenzo[f][1,4]benzoxazin-1-yl-(4-amino-1-methyl-pyrazolo[4,3-c]quinolin-8-yl)methanone]
CC50: 46 nM

C[C@H]1CN(C(=O)c2cc3c(cc2F)nc(N)c2cnn(C)c23)[C@H]2c3ccc(C(F)(F)F)cc3C[C@H]2O1 [Example Ca-22, (4-amino-7-fluoro-1-methyl-1H-pyrazolo[4,3-c]quinolin-8-yl)((2S,4aS,9aR)-2-methyl-7-(trifluoromethyl)-2,3,9,9a-tetrahydroindeno[2,1-b][1,4]oxazin-4(4aH)-yl)methanone]
CC50: 11 nM

Cn1ncc2c(N)nc3cnc(C(=O)N4CCO[C@@H]5Cc6cc(Br)c(F)cc6[C@@H]54)cc3c21 [Example Ca-29, (4-amino-1-methyl-1H-pyrazolo[4,3-c][1,7]naphthyridin-8-yl)((4aS,9aR)-7-bromo-6-fluoro-2,3,9,9a-tetrahydroindeno[2,1-b][1,4]oxazin-4(4aH)-yl)methanone]
CC50: 5 nM

Cn1ncc2c(N)nc3cnc(C(=O)N4CCO[C@@H]5Cc6cc(Br)ccc6[C@@H]54)cc3c21 [Example Ca-33, (4-amino-1-methyl-1H-pyrazolo[4,3-c][1,7]naphthyridin-8-yl)((4aS,9aR)-7-bromo-2,3,9,9a-tetrahydroindeno[2,1-b][1,4]oxazin-4(4aH)-yl)methanone]
CC50: 9 nM

Cn1ncc2c(N)nc3cnc(C(=O)N4CCO[C@@H]5Cc6cc(C7CC7)ccc6[C@@H]54)cc3c21 [Example Ca-34, (4-amino-1-methyl-1H-pyrazolo[4,3-c][1,7]naphthyridin-8-yl)((4aS,9aR)-7-cyclopropyl-2,3,9,9a-tetrahydroindeno[2,1-b][1,4]oxazin-4(4aH)-yl)methanone]
CC50: 62 nM

Cn1ncc2c(N)nc3cnc(C(=O)N4CCO[C@@H]5Cc6cc(Cl)ccc6[C@@H]54)cc3c21 [Example Ca-35, (4-amino-1-methyl-1H-pyrazolo[4,3-c][1,7]naphthyridin-8-yl)((4aS,9aR)-7-chloro-2,3,9,9a-tetrahydroindeno[2,1-b][1,4]oxazin-4(4aH)-yl)methanone]
CC50: 36 nM

Cc1ccc2c(c1)C[C@H]1OCCN(C(=O)c3cc4c(cn3)nc(N)c3cnn(C)c34)[C@@H]21 [Example Ca-36, (4-amino-1-methyl-1H-pyrazolo[4,3-c][1,7]naphthyridin-8-yl)((4aS,9aR)-7-methyl-2,3,9,9a-tetrahydroindeno[2,1-b][1,4]oxazin-4(4aH)-yl)methanone]
CC50: 95 nM

Cn1ncc2c(N)nc3cnc(C(=O)N4CC[C@H]5C[C@@H]4c4ccc(Cl)c(F)c45)cc3c21 [Example Ca-42, (4-amino-1-methyl-1H-pyrazolo[4,3-c][1,7]naphthyridin-8-yl)((1R,5S)-7-chloro-6-fluoro-1,3,4,5-tetrahydro-2H-1,5-methanobenzo[c]azepin-2-yl)methanone]
CC50: 25 nM

Cn1ncc2c3cc(C(=O)N4CCC[C@@H]5Oc6cc(C(F)(F)F)ccc6[C@@H]54)ncc3nc(N)c21 [Example Ca-43, (4-amino-3-methyl-3H-pyrazolo[3,4-c][1,7]naphthyridin-8-yl)((4aS,9bS)-7-(trifluoromethyl)-3,4,4a,9b-tetrahydrobenzofuro[3,2-b]pyridin-1(2H)-yl)methanone]
CC50: 56 nM

Cn1ncc2c3cc(C(=O)N4CC[C@H]5C[C@@H]4c4ccc(C(F)(F)F)cc4O5)ncc3nc(N)c21 [Example Ca-44, (4-amino-3-methyl-3H-pyrazolo[3,4-c][1,7]naphthyridin-8-yl)((2S,6R)-9-(trifluoromethyl)-3,4-dihydro-2H-2,6-methanobenzo[b][1,5]oxazocin-5(6H)-yl)methanone]
CC50: 139 nM

Cn1ncc2c(N)nc3cnc(C(=O)N4CC[C@H]5C[C@@H]4c4ccc(C(F)(F)F)cc4O5)cc3c21 [Example Ca-45, (4-amino-1-methyl-1H-pyrazolo[4,3-c][1,7]naphthyridin-8-yl)((2S,6R)-9-(trifluoromethyl)-3,4-dihydro-2H-2,6-methanobenzo[b][1,5]oxazocin-5(6H)-yl)methanone]
CC50: 5 nM

Nc1nc2cnc(C(=O)N3CC[C@H]4C[C@@H]3c3ccc(OC(F)(F)F)cc3O4)cc2c2c1COC2 [Example Ca-46, (4-amino-1,3-dihydrofuro[3,4-c][1,7]naphthyridin-8-yl)((2S,6R)-9-(trifluoromethoxy)-3,4-dihydro-2H-2,6-methanobenzo[b][1,5]oxazocin-5(6H)-yl)methanone]
CC50: 25 nM

[2H]C1([2H])CC[C@@H]2Oc3cc(C(F)(F)F)ccc3[C@@H]2N1C(=O)c1cc2c3c(c(N)nc2cn1)COC3 [Example Ca-48, (4-amino-1,3-dihydrofuro[3,4-c][1,7]naphthyridin-8-yl)((4aS,9bS)-7-(trifluoromethyl)-3,4,4a,9b-tetrahydrobenzofuro[3,2-b]pyridin-1(2H)-yl-2,2-d2)methanone]
CC50: 12 nM

C[C@@H]1CN(C(=O)c2cc3c(cn2)nc(N)c2cnn(C)c23)[C@H]2c3ccc(C(F)(F)F)cc3C[C@H]2O1 [Example Ca-49, (4-amino-1-methyl-1H-pyrazolo[4,3-c][1,7]naphthyridin-8-yl)((2R,4aS,9aR)-2-methyl-7-(trifluoromethyl)-2,3,9,9a-tetrahydroindeno[2,1-b][1,4]oxazin-4(4aH)-yl)methanone]
CC50: 26 nM

C[C@@H]1CN(C(=O)c2cc3c(cn2)nc(N)c2cnn(C)c23)[C@H]2c3ccc(Br)cc3C[C@H]2O1 [Example Ca-50, (4-amino-1-methyl-1H-pyrazolo[4,3-c][1,7]naphthyridin-8-yl)((2R,4aS,9aR)-7-bromo-2-methyl-2,3,9,9a-tetrahydroindeno[2,1-b][1,4]oxazin-4(4aH)-yl)methanone]
CC50: 20 nM

Cn1ncc2c(N)nc3cnc(C(=O)N4CCO[C@@H]5Cc6cc(C(F)(F)F)cc(F)c6[C@@H]54)cc3c21 [Example Ca-51, (4-amino-1-methyl-1H-pyrazolo[4,3-c][1,7]naphthyridin-8-yl)((4aS,9aR)-5-fluoro-7-(trifluoromethyl)-2,3,9,9a-tetrahydroindeno[2,1-b][1,4]oxazin-4(4aH)-yl)methanone]
CC50: 195 nM
